In US20250064990A1, “METHODS OF SCREENING FOR VMAT2 INHIBITORS” (Neurocrine Biosciences, Inc., priority 2021, published 2025):
Read-outs that look alike come from different tables or passages of the source.

Experiments:
VMAT2 = VMAT2 (Macaca fascicularis, UniProt A0A2K5UVB8); assay: VMAT2 occupancy in NHP brain after i.v. NBI-750142, [^18F]AV-133 PET; type: in vivo, cynomolgus monkeys (Macaca fascicularis); details: for receptor occupancy at 0.084 mg/kg / receptor occupancy at 0.52 mg/kg / receptor occupancy at 0.026 mg/kg / receptor occupancy at 0.26 mg/kg / receptor occupancy at 0.78 mg/kg: cynomolgus monkey
Sequence of VMAT2 (A0A2K5UVB8 entry or part of it): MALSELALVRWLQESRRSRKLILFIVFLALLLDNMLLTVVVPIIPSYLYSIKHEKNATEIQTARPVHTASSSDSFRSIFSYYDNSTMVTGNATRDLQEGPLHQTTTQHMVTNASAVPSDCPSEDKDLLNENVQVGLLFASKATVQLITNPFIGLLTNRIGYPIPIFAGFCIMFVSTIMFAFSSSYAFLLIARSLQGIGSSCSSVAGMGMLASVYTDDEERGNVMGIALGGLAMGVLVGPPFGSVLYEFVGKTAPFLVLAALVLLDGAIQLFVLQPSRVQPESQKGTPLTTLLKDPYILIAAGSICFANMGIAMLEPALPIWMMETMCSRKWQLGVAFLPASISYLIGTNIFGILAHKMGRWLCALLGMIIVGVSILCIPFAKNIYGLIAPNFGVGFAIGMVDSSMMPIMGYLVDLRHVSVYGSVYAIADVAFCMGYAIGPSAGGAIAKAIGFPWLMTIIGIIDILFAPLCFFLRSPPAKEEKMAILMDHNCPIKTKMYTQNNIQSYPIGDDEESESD
From the text: The aim of this study was to assess the relationship between NBI-750142 dose/plasma concentration and VMAT2 occupancy with [^18F]AV-133 using PET in non-human primate (NIP) brain. A radioligand, [^18F]AV-133, has been used to image and quantify brain VMAT2 in vivo.
Three non-naïve cynomolgus monkeys (Macaca fascicularis) were used in this study. The animals were judged to be in good health before the start of the study. At study origination the animals were 7 (female, EC865), 8 (male, GC786) and 9 (female, LC206) years old and weighed 4.2, 7.0, and 5.4 kg, respectively.
The animals were imaged with [^18F]AV-133 at baseline with vehicle (0.9% saline) and post NBI-750142 blockade on separate days. Vehicle and NBI-750142 were administered as an intravenous (i.v.) bolus followed by a constant infusion over 3 hours. [^18F]AV-133 was injected as an i.v. bolus, 1 h after administration of vehicle/NBI-750142. The design study is summarized below Table 2-1.
Dynamic data were acquired in the MicroPET Focus-220 camera (Siemens Microsystems, Knoxville, TN). Emission data were collected for 120 min post-injection and reconstructed into a series of 33 frames and all standard corrections were applied: normalization, random, scatter and attenuation. Dynamic brain PET images were transferred and analyzed using the image processing PMOD software package v3.802 (PMOD Technologies, Zurich, Switzerland). The PET images were rigidly aligned to a previously acquired animal's brain T1 MRI and then spatially normalized to a common cynomolgus MRI template for anatomical brain region definition.
Volumes of interest (VOIs) defined in the cynomolgus template space (see e.g., Ballanger et al. Neuroimage, 2013, 7:26-43) were applied to the spatially normalized PET images to compute time-activity curves (TACs, kBq/cm^3) for caudate (0.96 cm^3), putamen (1.34 cm^3) and cerebellum (3.81 cm^3). TACs and images (averaged between 60-120 min) were presented in Standard Uptake Value (SUV) units (g/mL) normalized by the weight of the animal and the injected dose.
Non-invasive Logan graphical analysis (start time of fit, t*=35 min) was used to estimate regional non-displaceable binding potential (BPND) using the TACs in the caudate and putamen, with the cerebellar cortex as the reference TAC. BPND was calculated in the in the caudate and putamen across baseline and NBI-750142 scans. Target occupancy was calculated according to Equation 1-1.
where h is the Hill slope (h=1.0) and C is the mean of observed plasma concentrations during the scanning interval (60 to 180 minutes post-dose).

[1] = NBI-750142 plasma concentration in healthy subjects; type: in vivo; details: human, 18 h post single oral dose, across cohorts, approximately, read-out: NBI-750142 plasma concentrations at T2

COc1cc2c(cc1OC)[C@H]1CN(C)[C@H](CC(C)(C)C)CN1CC2 [NBI-750142]
[^18F]AV-133 BPND (VMAT2; animal EC865, Caudate, NBI-750142 0.084 mg/kg): 2.39 | [^18F]AV-133 BPND (VMAT2; animal EC865, Caudate, NBI-750142 0.52 mg/kg): 1.01 | [^18F]AV-133 BPND (VMAT2; animal EC865, Putamen, NBI-750142 0.084 mg/kg): 3.10 | [^18F]AV-133 BPND (VMAT2; animal EC865, Putamen, NBI-750142 0.52 mg/kg): 1.18 | [^18F]AV-133 BPND (VMAT2; animal GC786, Caudate, NBI-750142 0.026 mg/kg): 3.10 | [^18F]AV-133 BPND (VMAT2; animal GC786, Caudate, NBI-750142 0.26 mg/kg): 2.22 | [^18F]AV-133 BPND (VMAT2; animal GC786, Caudate, NBI-750142 0.78 mg/kg): 0.33 | [^18F]AV-133 BPND (VMAT2; animal GC786, Putamen, NBI-750142 0.026 mg/kg): 3.53 | [^18F]AV-133 BPND (VMAT2; animal GC786, Putamen, NBI-750142 0.26 mg/kg): 2.39 | [^18F]AV-133 BPND (VMAT2; animal GC786, Putamen, NBI-750142 0.78 mg/kg): 0.43 | [^18F]AV-133 BPND (VMAT2; animal LC206, Caudate, NBI-750142 0.26 mg/kg): 1.42 | [^18F]AV-133 BPND (VMAT2; animal LC206, Putamen, NBI-750142 0.26 mg/kg): 1.61 | [^18F]AV-133 binding post administration of NBI-750142 (VMAT2; caudate and putamen vs baseline): dose-dependent decrease | receptor occupancy at 0.084 mg/kg (VMAT2; iv, read-out: % Occ, animal EC865, Caudate, 0.084 mg/kg): 38.7% | receptor occupancy at 0.52 mg/kg (VMAT2; iv, read-out: % Occ, animal EC865, Caudate, 0.52 mg/kg): 74.2% | receptor occupancy at 0.084 mg/kg (VMAT2; iv, read-out: % Occ, animal EC865, Putamen, 0.084 mg/kg): 40.9% | receptor occupancy at 0.52 mg/kg (VMAT2; iv, read-out: % Occ, animal EC865, Putamen, 0.52 mg/kg): 77.5% | receptor occupancy at 0.026 mg/kg (VMAT2; iv, read-out: % Occ, animal GC786, Caudate, 0.026 mg/kg): 31.1% | receptor occupancy at 0.26 mg/kg (VMAT2; iv, read-out: % Occ, animal GC786, Caudate, 0.26 mg/kg): 50.8% | receptor occupancy at 0.78 mg/kg (VMAT2; iv, read-out: % Occ, animal GC786, Caudate, 0.78 mg/kg): 92.7% | receptor occupancy at 0.026 mg/kg (VMAT2; iv, read-out: % Occ, animal GC786, Putamen, 0.026 mg/kg): 25.8% | receptor occupancy at 0.26 mg/kg (VMAT2; iv, read-out: % Occ, animal GC786, Putamen, 0.26 mg/kg): 49.7% | receptor occupancy at 0.78 mg/kg (VMAT2; iv, read-out: % Occ, animal GC786, Putamen, 0.78 mg/kg): 90.9% | receptor occupancy at 0.26 mg/kg (VMAT2; iv, read-out: % Occ, animal LC206, Caudate, 0.26 mg/kg): 64.5% | receptor occupancy at 0.26 mg/kg (VMAT2; iv, read-out: % Occ, animal LC206, Putamen, 0.26 mg/kg): 63.7% | receptor occupancy at 0.084 mg/kg (VMAT2; read-out: Target Occupancy, Mean of Putamen and Caudate, EC865, 0.084 mg/kg): 40% | receptor occupancy at 0.52 mg/kg (VMAT2; read-out: Target Occupancy, Mean of Putamen and Caudate, EC865, 0.52 mg/kg): 76% | receptor occupancy at 0.026 mg/kg (VMAT2; read-out: Target Occupancy, Mean of Putamen and Caudate, GC786, 0.026 mg/kg): 28% | receptor occupancy at 0.26 mg/kg (VMAT2; read-out: Target Occupancy, Mean of Putamen and Caudate, GC786, 0.26 mg/kg): 50% | receptor occupancy at 0.78 mg/kg (VMAT2; read-out: Target Occupancy, Mean of Putamen and Caudate, GC786, 0.78 mg/kg): 92% | receptor occupancy at 0.26 mg/kg (VMAT2; read-out: Target Occupancy, Mean of Putamen and Caudate, LC206, 0.26 mg/kg): 64% | 50% effective total concentration (EC50) of plasma NBI-750142 for VMAT2 occupancy (VMAT2; striatum, Emax model, Hill slope 1, cynomolgus monkey PET): 0.011 µg/mL | concentration at 18 h [1]: 0.3 to 10 ng/mL
